Assay results: patent publication US20260240826A1, “COMPOSITIONS FOR PD-L1 INHIBITION AND METHODS OF USE THEREOF” (ARIZONA BOARD OF REGENTS ON BEHALF OF THE UNIVERSITY OF …, priority 2023, published 2026)

System: AP-1 luciferase SKH-1 reporter mice
Assay: AP-1 SKH-1 reporter mouse bioluminescence
Format: in vivo
Conditions: topical 8 mM; imaged 24 hr after UVB
Description: UVB exposure was performed on AP-1 luciferase reporter mice on the SKH-1 genetic background at a dose of 2.75 kJ/m2 using FS40 bulbs (Q-Lab Corporation) as described before with the modification that mice were imaged 24 hr post UVB exposure using whole body bioluminescence instead of 48 hr post UVB using ear punches. SSL irradiation of SKH-1 mice (Charles River Laboratories, strain code 477) at a dose of 90 kJ/m2 UVA/6 kJ/m2 UVB was performed using UVA-340 bulbs (Q-Lab Corporation) as described before.
Male transgenic SKH-1 mice heterozygous for the TPA-Response Element (TRE)-driven luciferase transgene (“AP-1 luciferase” mice, n=3) were treated topically on their backs with 200 μL of 8 mM BMS-202 or vehicle control (acetone). For all mice receiving BMS-202, the compound was applied twice before (24 hr and 1 hr) as well as immediately after UV exposure, a dose regimen ensuring efficient target modulation, similar to topical non-sunscreen photoprotection approaches. Mice were injected i.p. with luciferin (potassium salt) stock solution in PBS without magnesium or calcium at a dose of <150 mg/kg of body weight 24 hr after UV exposure and imaged (Lago instrument, Spectral Instruments Imaging) with Aura software analysis.

Compound: COc1nc(OCc2cccc(-c3ccccc3)c2C)ccc1CNCCNC(C)=O [BMS-202]
- attenuation in bioluminescent signal intensity (UV-induced AP-1 stress response): ~5 fold
